Laboratory results published in US20100160295A1, “TREATMENT OF RESTLESS LEG SYNDROME AND SLEEP DISORDERS” (SYNOSIA THERAPEUTICS, priority 2008, published 2010).

Columns and labels:
[1] = tested on: Subjects with RLS; experiment: Medical Outcomes Study (MOS) Sleep Scale, placebo-controlled study in RLS subjects; format: in vivo, human
Description: (§1) The study multi-centre, randomized, double-blind, parallel-groups, placebo-controlled study with 2 treatment arms, oral HPPD inhibitor (2-(2-nitro-4-trifluoromethylbenzoyl)-1,3-cyclohexanedione) and placebo. Subjects were randomized to either treatment with an HPPD inhibitor or placebo in a 2:1 ratio. The subjects were dosed with 4 mg on day 1, and 2 mg/day on days 2-14. The total duration of treatment with study drug for each subject was 14 consecutive days ending at the day of the final sleep lab assessment (Day 14), with a follow-up examination 29 days after Baseline.
Efficacy parameters were changes between Baseline and end of treatment in objective measures of Periodic Limb Movements (PLM) and sleep efficiency and in investigator evaluations of severity of RLS symptoms as well as in subject's report on severity of RLS symptoms, sleep disturbances and depressive feelings. Parameters measured included: • Periodic Limb Movement (PLM) Index, defined as the number of PLM events occurring during time-in-bed (PLMI/h TIB) • Periodic Limb Movements during Sleep Index, defined as the number of PLMs per hour of total sleep time (PLMSI/h TST) • PLM arousal index, defined as the number of PLM with arousals per hour of total sleep time (PLMSAI/h TST) • Periodic Limb Movements during wakefulness index, defined as the number of PLMs per hour occurring during wakefulness within time-in-bed (PLMWI/h TIB) • Sleep Efficiency (SE) expressed as the percentage total sleep time (TST) of total time in bed (TIB) • Total Sleep Time (TST) • Total number of arousals per TST • Sleep latency • Restless Legs Scale—6 items (RLS-6) (Kohnen et al, 2004) • IRLS total score change from start of treatment to end • Time to requiring rescue medication (defined as time to dropout due to the need of rescue medication for intolerable RLS symptoms) • Physicians' Global Impression, rated by the Clinical Global Impressions Scale (CGI): severity, change and treatment effect • CGI responders defined as the proportion of subjects who improved “much” or “very much” on CGI item “change”. • Patients' Global Impression (PGI) scale Item 1 (efficacy) • Medical Outcomes Study (MOS) Sleep Scale • Beck Depression Inventory (BDI) • In addition, a patient diary was to be completed between days 8 and 15 • HPPD inhibitor plasma concentrations at Baseline, end of treatment and follow-up • Tyrosine plasma concentration at Baseline, end of treatment and follow-up.
Subjects with RLS received either placebo (7 subjects) or an HPPD inhibitor (13 subjects) given as 4 mg on day 1, then 2 mg per day for days 2-14 of the trial. Various parameters relevant to RLS were monitored during the course of treatment, in particular the quality of their sleep patterns using a standard assessment scale (Medical Outcomes Study (MOS) Sleep Scale). Individuals were asked to complete a standard evaluation of their ‘normal’ sleep experience at the start of the trial (Baseline) and again at the end of treatment (EoT), with the various parameters scored according to the attached document.
The MOS Sleep Scale is a comprehensive subject completed sleep questionnaire consisting of 12 items (Hays and Stewart, 1992; Hays et al., 2005). Each item measures a unique aspect or characteristic of sleep. Overall, the MOS Sleep Scale measures the following:
All items, except for item 2, were transformed in a ‘0-100’ scale.
For the analysis of the MOS sleep scale, the following subscales were determined as means of the involved items (in part, after reversing the ratings in the ‘0-100’ scale, denoted by (R) in the item sequence):
Subjects self-reported the length of time it took for them to fall asleep and the average number of hours of sleep each night. Scores for all other items range from 1 (all of the time) to 6 (none of the time).
The MOS Sleep Scale was completed at Baseline (Visit 2) and final examination (Visit 3).

[2] = Plasma level of HPPD inhibitor and plasma tyrosine at steady state, 2 mg QD vs. 2 mg Q2D (FIG. 3); format: in vivo
Description: FIG. 3 is a graphical comparison of the mean plasma level of an exemplary HPPD inhibitor with plasma tyrosine at steady state following 2 mg QD vs. 2 mg Q2D dosing.
FIG. 3 provides an example of plasma tyrosine levels which are essentially identical and independent of whether the HPPD inhibitor is administered once a day or once every two days.

[3] = tested on: moderate to severe idiopathic RLS subjects; experiment: PSG measurements, Periodic Limb Movement (PLM) index; format: in vivo, human; conditions: log-transformed values on PSG measurements
Description: as §1
The objective of this exploratory study was to show proof-of-concept of therapy with an exemplary HPPD inhibitor in moderate to severe idiopathic RLS subjects.
Efficacy parameters were changes between Baseline and end of treatment in objective measures of Periodic Limb Movements (PLM) and sleep efficiency and in investigator evaluations of severity of RLS symptoms as well as in subject's report on severity of RLS symptoms, sleep disturbances and depressive feelings. […]

[4] = EoT Visit, M-ITT, none of the placebo patients
[5] = EoT, PPS n = 13, 4 mg day 1, 2 mg/day days 2-14
[6] = EoT, PPS n = 13, item 2 raw scores
[7] = M-ITT, HPPD inhibitor vs placebo
[8] = change from Baseline to EoT, PPS n = 13

O=C1CCCC(=O)C1C(=O)c1ccc(C(F)(F)F)cc1[N+](=O)[O-] [HPPD Inhibitor, 2-(2-nitro-4-trifluoromethylbenzoyl)-1,3-cyclohexanedione]
patients reporting optimal sleep (7-8 hours), number [1, 4]: 5 patients | patients reporting optimal sleep (7-8 hours), percentage [1, 4]: 35.7% | patients reporting optimal sleep (7-8 hours), number ([1]; EoT Visit, PPS): 4 patients | MOS Short of Breath Scale, absolute, Median ([1]; EoT, PPS n = 13): 0.0 | MOS Short of Breath Scale, absolute, Range ([1]; EoT, PPS n = 13): 0.0-40.0 | MOS Sleep Adequacy Scale, absolute, Median ([1]; EoT, PPS n = 13): 50.0 | MOS Sleep Adequacy Scale, absolute, Range ([1]; EoT, PPS n = 13): 0.0-80.0 | MOS Sleep Problems Index I, absolute, Median ([1]; EoT, PPS n = 13): 33.3 | MOS Sleep Problems Index I, absolute, Range ([1]; EoT, PPS n = 13): 10.0-70.0 | MOS Sleep Problems Index II, absolute, Median ([1]; EoT, PPS n = 13): 32.8 | MOS Sleep Problems Index II, absolute, Range ([1]; EoT, PPS n = 13): 11.1-74.4 | MOS Snoring Scale, absolute, Median ([1]; EoT, PPS n = 13): 20.0 | MOS Snoring Scale, absolute, Range ([1]; EoT, PPS n = 13): 0.0-40.0 | MOS Somnolence Scale, absolute, Median ([1]; EoT, PPS n = 13): 13.3 | MOS Somnolence Scale, absolute, Range ([1]; EoT, PPS n = 13): 6.7-66.7 | MOS Short of Breath Scale, absolute, M ± SD [1, 5]: 9.2 ± 15.5 | MOS Sleep Disturbance Scale, absolute, Median [1, 5]: 43.8 | MOS Sleep Disturbance Scale, absolute, Range [1, 5]: 10.0-72.5 | MOS Sleep Problems Index I, absolute, M ± SD [1, 5]: 36.7 ± 16.3 | MOS Sleep Problems Index II, absolute, M ± SD [1, 5]: 37.9 ± 16.8 | MOS Snoring Scale, absolute, M ± SD [1, 5]: 20.0 ± 16.3 | MOS Somnolence Scale, absolute, M ± SD [1, 5]: 24.6 ± 19.7 | MOS Sleep Disturbance Scale, absolute, M ± SD ([1]; EoT, PPS n = 13, 4 mg day 1, 2 mg/day days 2-14, 0-100 scale, higher = stronger sleep problems): 41.8 ± 16.7 | MOS Sleep Adequacy Scale, absolute, M ± SD ([1]; EoT, PPS n = 13, 4 mg day 1, 2 mg/day days 2-14, higher values = better): 46.9 ± 25.9 | MOS Sleep Quantity, absolute, Median [1, 6]: 6.0 h | MOS Sleep Quantity, absolute, Range [1, 6]: 4.0 to 8.0 h | MOS Sleep Quantity, absolute, M ± SD ([1]; EoT, PPS n = 13, item 2 raw scores, 4 mg day 1, 2 mg/day days 2-14): 6.1 ± 1.0 h | MOS sleep adequacy: difference HPPD inhibitor—placebo, LS mean ([1]; M-ITT, 95%-CI: 1.30, 52.64, p=0.0405 two-sided from ANCOVA): 26.97 | MOS sleep disturbance: difference HPPD inhibitor—placebo, LS mean ([1]; M-ITT, 95%-CI: −35.53, 0.93, p=0.0616 two-sided from ANCOVA): −17.30 | MOS sleep problems index II: difference HPPD inhibitor—placebo, LS mean ([1]; M-ITT, 95%-CI: −36.18, 2.61, p=0.0857 two-sided from ANCOVA): −16.78 | MOS sleep problems index I: difference HPPD inhibitor—placebo, LS mean ([1]; M-ITT, 95%-CI: −37.80, 0.31, p=0.0534 two-sided from ANCOVA): −18.75 | MOS sleep adequacy: effect size d [1, 7]: 0.50 | MOS sleep disturbance: effect size d [1, 7]: 0.55 | MOS sleep problems index I: effect size d [1, 7]: 0.54 | MOS sleep problems index II: effect size d [1, 7]: 0.41 | MOS Short of Breath Scale, change, M ± SD [1, 8]: −7.7 ± 19.2 | MOS Short of Breath Scale, change, Median [1, 8]: 0.0 | MOS Short of Breath Scale, change, Range [1, 8]: −40.0-20.0 | MOS Sleep Adequacy Scale, change, M ± SD [1, 8]: 26.9 ± 35.5 | MOS Sleep Adequacy Scale, change, Median [1, 8]: 30.0 | MOS Sleep Adequacy Scale, change, Range [1, 8]: −50.0-80.0 | MOS Sleep Disturbance Scale, change, M ± SD [1, 8]: −35.0 ± 27.5 | MOS Sleep Disturbance Scale, change, Median [1, 8]: −46.3 | MOS Sleep Disturbance Scale, change, Range [1, 8]: −68.8-11.3 | MOS Sleep Problems Index I, change, M ± SD [1, 8]: −23.8 ± 20.3 | MOS Sleep Problems Index I, change, Median [1, 8]: −20.0 | MOS Sleep Problems Index I, change, Range [1, 8]: −60.0-3.3 | MOS Sleep Problems Index II, change, M ± SD [1, 8]: −25.5 ± 19.9 | MOS Sleep Problems Index II, change, Median [1, 8]: −23.9 | MOS Sleep Problems Index II, change, Range [1, 8]: −61.7-−1.7 | MOS Sleep Quantity, change, M ± SD [1, 8]: 1.8 ± 1.1 h | MOS Sleep Quantity, change, Median [1, 8]: 2.0 h | MOS Sleep Quantity, change, Range [1, 8]: 0.0 to 3.0 h | MOS Snoring Scale, change, M ± SD [1, 8]: −6.2 ± 15.0 | MOS Snoring Scale, change, Median [1, 8]: 0.0 | MOS Snoring Scale, change, Range [1, 8]: −40.0-20.0 | MOS Somnolence Scale, change, M ± SD [1, 8]: −10.3 ± 16.0 | MOS Somnolence Scale, change, Median [1, 8]: −13.3 | MOS Somnolence Scale, change, Range [1, 8]: −33.3-13.3 | steady state plasma tyrosine levels, once a day vs once in two days ([2]; 2 mg once a day vs 2 mg once in 2 days): substantially similar | plasma levels of the HPPD inhibitor, once in two day regimen vs once a day ([2]; 2 mg once in 2 days vs 2 mg once a day, steady state): lower | PLM index values, improvement as compared to placebo [3]: slightly larger improvement
